Calls of active or inactive are those of the source.
Legend:
SUMO-activating enzyme [1] = target: T1, SUMO-activating enzyme (Homo sapiens, UniProt Q9UBT2); test: SUMOylation inhibitor hit validation, confirmation, SUMOylation inhibitor project, biochemical, AlphaScreen (AID 2018); assay type: functional
[2] = target: Epstein-Barr nuclear antigen 1 (Epstein-Barr virus (strain B95-8) (HHV-4) (Human herpesvirus 4), UniProt P03211); test: EBNA-1 inhibitors, dose response, biochemical, fluorescence polarization, 1536-well (AID 2381); parameters: species or system human gammaherpesvirus 4;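 note: fluorescence polarization of a Cy5 DNA probe bound by EBNA-1 protein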
SUMO-activating enzyme [3] = target: T1, SUMO-activating enzyme; test: inhibitors of in vitro SUMOylation cascade, primary screen, biochemical, HTRF, uHTS (AID 2006); assay type: protein-complex assay
[4] = target: Lytic switch protein BZLF1 (Epstein-Barr virus (strain B95-8) (HHV-4) (Human herpesvirus 4), UniProt P03206); test: EBV ZTA inhibitors, dose response, counter-screen for EBNA-1 inhibitor project, biochemical, fluorescence polarization, Epstein-Barr virus, 1536-well (AID 2377); parameters: species or system human gammaherpesvirus 4;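 note: fluorescence polarization of Cy5-labelled ZRE DNA probe bound by purified Zta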
[5] = target: T2, Induced myeloid leukemia cell differentiation protein Mcl-1 (Homo sapiens, UniProt Q07820); test: MCL1-BIM BH3 interaction inhibitors, dose response, biochemical, fluorescence polarization, BIM-BH3 peptide, 1536-well (AID 2217)
T2 sequence (Q07820 whole entry): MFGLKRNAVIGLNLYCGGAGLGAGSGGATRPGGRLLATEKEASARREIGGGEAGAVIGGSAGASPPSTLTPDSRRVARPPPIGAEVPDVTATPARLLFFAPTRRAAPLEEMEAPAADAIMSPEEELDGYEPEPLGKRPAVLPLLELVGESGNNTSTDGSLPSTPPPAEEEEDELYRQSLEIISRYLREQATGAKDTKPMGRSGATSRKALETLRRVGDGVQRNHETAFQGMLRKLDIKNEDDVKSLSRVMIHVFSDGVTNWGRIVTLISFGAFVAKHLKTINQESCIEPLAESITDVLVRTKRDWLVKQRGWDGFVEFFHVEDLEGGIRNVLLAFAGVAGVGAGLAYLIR

Bcl-2-like protein 1 = Bcl-2-like protein 1 (Homo sapiens, UniProt Q07817); test: BCL-XL inhibitors, dose response, selectivity assay for MCL1 inhibitor project, biochemical, fluorescence polarization, 1536-well (AID 2218)
Genome polyprotein [6] = target: Genome polyprotein (dengue virus type 2, UniProt P29990); test: Dengue-2 NS5 methyltransferase inhibitors, primary screen, biochemical, confirmation dose response (AID 588689); assay type: functional
Caspase-6 = target: T3, Caspase-6 (Homo sapiens, UniProt P55212); test: human caspase-6 inhibitors, dose response, biochemical, VEID-R110 fluorescence, cherry-pick (AID 720632)
T3 sequence (P55212 whole entry): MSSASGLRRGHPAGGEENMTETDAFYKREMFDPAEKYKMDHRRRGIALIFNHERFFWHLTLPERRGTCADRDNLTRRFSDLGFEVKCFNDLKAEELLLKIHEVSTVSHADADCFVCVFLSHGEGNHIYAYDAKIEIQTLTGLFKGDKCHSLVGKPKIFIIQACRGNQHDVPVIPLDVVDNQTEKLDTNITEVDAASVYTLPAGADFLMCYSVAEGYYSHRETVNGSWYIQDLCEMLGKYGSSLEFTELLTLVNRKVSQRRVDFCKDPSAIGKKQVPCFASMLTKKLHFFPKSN

Genome polyprotein [7] = target: Genome polyprotein (Hepatitis C virus, UniProt Q2Q167); test: HCV core protein dimerization inhibitors, dose response, biochemical, TR-FRET (AID 2159); parameters: species or system Hepacivirus hominis;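 note: blocks dimerization of HCV core protein measured by TR-FRET between tagged core106 pairs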
Bcl-2-like protein 10 [8] = target: T4, Bcl-2-like protein 10 (Homo sapiens, UniProt Q9HD36); test: displacers of TR3 peptide from Bcl-B, primary screen, selectivity assay for Bfl-1 inhibitor project, biochemical, fluorescence polarization, FITC-TR3 peptide (AID 748);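 note: fluorescence polarization from a fluorescein-labelled TR3 peptide binding purified Bcl-B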
T4 sequence (Q9HD36 whole entry): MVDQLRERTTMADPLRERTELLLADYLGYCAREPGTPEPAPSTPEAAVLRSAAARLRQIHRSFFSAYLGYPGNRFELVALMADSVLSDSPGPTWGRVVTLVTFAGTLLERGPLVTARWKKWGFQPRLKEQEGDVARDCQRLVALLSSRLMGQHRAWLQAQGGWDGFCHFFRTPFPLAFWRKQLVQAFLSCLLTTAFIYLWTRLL

[9] = target: Protein-tyrosine kinase 2-beta (Homo sapiens, UniProt Q14289);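 note: potency of inhibitors of PYK2 kinase phosphorylation of poly-GT substrate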
[10] = target: T2, Induced myeloid leukemia cell differentiation protein Mcl-1; assay type: functional
SUMO E1/E2 = SUMO E1/E2 (Homo sapiens, UniProt P63279+Q9UBE0+Q9UBT2); test: SAR analysis of SUMOylation using HTRF in an in-Vitro dose response assay. [Related pubchem assays (depositor defined):AID2006, AID2011, AID2018, AID2069, AID2658]; assay type: functional
Sequence of SUMO E1/E2 (Q9UBE0 whole entry): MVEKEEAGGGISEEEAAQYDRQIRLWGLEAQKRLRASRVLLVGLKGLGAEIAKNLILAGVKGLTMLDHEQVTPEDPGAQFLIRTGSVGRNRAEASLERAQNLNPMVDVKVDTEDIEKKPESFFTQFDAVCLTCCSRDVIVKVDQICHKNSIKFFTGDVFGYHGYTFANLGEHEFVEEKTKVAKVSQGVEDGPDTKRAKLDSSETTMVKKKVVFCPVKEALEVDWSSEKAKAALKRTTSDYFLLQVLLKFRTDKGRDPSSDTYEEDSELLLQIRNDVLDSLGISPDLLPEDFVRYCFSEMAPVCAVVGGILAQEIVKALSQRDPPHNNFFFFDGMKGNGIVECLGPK
Sequence of SUMO E1/E2 (Q9UBT2 whole entry): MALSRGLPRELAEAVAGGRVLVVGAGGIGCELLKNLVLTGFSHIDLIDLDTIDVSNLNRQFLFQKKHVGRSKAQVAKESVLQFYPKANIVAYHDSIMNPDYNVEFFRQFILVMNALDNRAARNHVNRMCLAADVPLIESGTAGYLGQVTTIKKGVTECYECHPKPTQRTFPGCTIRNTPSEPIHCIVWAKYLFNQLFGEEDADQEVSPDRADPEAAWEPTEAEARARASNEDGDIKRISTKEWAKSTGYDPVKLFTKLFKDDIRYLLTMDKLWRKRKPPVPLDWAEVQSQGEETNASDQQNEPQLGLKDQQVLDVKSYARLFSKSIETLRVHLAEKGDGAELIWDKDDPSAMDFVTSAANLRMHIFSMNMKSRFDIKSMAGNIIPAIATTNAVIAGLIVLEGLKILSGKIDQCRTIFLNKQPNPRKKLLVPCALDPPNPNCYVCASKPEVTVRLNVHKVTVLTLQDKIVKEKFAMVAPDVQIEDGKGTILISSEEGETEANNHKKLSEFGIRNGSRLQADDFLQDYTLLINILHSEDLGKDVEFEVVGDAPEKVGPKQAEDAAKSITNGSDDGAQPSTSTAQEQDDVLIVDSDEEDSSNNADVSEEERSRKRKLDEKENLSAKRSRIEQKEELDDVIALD
Sequence of SUMO E1/E2 (P63279 whole entry): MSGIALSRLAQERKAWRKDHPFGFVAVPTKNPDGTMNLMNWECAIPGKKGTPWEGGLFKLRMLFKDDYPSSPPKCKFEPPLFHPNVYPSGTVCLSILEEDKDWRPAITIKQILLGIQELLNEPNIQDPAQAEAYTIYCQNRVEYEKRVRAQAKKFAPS

[11] = target: T5, Voltage-gated N-type calcium channel alpha-1B subunit/Amyloid beta A4 precursor protein-binding family A member 1 (Homo sapiens, UniProt Q00975+Q02410); test: disruptors of Mint-PDZ/N-type channel peptide interaction – biochemical, HTRF, set 2, SAR follow-up (AID 434980); assay type: functional
T5 sequence (Q00975 whole entry): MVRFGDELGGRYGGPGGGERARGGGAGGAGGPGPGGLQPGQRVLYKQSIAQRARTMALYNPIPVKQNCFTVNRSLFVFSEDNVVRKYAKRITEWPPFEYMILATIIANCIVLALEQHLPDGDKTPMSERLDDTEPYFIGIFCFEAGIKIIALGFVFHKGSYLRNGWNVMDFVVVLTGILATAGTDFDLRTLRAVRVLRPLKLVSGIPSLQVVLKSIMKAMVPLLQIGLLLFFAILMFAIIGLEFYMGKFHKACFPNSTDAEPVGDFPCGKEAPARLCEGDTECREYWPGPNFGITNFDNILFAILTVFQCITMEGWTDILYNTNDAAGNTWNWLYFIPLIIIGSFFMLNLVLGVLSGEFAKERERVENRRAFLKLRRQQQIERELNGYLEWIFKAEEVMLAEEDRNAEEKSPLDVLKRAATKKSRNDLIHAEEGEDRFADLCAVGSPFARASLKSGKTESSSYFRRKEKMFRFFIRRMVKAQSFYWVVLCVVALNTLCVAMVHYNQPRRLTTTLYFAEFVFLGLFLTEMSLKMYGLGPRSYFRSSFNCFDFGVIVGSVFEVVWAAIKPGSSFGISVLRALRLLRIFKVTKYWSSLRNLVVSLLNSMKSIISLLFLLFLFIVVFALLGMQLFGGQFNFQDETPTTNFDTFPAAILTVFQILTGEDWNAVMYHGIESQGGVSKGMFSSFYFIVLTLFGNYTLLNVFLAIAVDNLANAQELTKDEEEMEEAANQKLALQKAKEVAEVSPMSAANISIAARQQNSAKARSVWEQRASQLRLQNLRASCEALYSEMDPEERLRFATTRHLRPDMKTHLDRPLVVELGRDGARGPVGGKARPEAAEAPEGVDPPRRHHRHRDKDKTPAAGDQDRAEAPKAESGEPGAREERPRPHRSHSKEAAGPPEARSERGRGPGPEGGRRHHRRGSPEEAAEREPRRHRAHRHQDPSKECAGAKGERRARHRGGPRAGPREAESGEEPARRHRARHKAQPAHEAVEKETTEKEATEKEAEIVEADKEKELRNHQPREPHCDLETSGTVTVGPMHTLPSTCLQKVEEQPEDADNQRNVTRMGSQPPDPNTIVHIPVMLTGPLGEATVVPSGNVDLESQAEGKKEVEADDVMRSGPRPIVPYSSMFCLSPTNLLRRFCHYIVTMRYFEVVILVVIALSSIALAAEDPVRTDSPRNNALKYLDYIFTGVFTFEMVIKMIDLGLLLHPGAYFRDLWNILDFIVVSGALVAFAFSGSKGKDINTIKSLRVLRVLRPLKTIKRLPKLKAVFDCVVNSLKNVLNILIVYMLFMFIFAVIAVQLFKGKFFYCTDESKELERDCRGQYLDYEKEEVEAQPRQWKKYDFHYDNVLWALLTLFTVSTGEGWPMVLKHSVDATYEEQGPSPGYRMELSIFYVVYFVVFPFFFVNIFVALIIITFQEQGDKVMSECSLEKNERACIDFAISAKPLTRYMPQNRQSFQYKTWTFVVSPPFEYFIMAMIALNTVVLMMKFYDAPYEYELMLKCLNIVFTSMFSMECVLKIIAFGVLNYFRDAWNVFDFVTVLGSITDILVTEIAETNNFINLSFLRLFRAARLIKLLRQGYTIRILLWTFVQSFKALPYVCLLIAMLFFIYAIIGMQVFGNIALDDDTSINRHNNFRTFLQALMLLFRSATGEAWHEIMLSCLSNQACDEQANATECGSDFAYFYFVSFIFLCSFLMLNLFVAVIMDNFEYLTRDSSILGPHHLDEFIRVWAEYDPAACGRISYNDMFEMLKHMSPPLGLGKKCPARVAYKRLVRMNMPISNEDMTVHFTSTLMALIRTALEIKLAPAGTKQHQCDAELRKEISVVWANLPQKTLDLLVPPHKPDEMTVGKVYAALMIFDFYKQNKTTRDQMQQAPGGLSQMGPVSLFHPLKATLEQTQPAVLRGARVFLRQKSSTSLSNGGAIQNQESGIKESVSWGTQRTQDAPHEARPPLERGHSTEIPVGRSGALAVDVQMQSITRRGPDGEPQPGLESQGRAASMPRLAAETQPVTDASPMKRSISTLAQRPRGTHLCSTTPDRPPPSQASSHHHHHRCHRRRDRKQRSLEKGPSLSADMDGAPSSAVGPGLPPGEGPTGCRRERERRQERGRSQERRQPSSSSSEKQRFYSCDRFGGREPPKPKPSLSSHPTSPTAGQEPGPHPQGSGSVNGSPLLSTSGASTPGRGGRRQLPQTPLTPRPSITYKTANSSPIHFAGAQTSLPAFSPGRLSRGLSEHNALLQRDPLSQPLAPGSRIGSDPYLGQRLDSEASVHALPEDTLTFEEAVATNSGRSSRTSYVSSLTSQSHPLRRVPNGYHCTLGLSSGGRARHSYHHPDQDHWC
T5 sequence (Q02410 whole entry): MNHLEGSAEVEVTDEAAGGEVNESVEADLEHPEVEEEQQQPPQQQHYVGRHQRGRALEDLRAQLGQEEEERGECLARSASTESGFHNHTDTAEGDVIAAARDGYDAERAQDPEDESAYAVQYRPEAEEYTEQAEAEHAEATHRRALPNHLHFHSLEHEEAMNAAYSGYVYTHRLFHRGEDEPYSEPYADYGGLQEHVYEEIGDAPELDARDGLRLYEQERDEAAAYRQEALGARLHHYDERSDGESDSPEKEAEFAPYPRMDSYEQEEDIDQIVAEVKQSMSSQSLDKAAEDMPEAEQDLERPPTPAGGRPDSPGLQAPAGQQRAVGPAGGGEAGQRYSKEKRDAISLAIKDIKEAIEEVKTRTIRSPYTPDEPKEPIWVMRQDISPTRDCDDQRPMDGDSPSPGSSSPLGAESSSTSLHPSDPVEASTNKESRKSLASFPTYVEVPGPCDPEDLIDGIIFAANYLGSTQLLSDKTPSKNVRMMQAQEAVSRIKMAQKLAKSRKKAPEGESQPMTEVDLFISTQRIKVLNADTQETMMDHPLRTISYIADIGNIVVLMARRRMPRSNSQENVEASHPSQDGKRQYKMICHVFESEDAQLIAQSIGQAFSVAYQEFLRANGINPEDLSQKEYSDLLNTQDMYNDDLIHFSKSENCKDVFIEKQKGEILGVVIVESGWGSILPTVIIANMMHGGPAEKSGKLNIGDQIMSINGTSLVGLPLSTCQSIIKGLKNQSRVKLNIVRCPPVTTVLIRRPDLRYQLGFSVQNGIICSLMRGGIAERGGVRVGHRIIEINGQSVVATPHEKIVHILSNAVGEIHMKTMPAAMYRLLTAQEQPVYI

[12] = target: T5, Voltage-gated N-type calcium channel alpha-1B subunit/Amyloid beta A4 precursor protein-binding family A member 1; test: disruptors of Mint-PDZ/N-type channel peptide interaction – biochemical, HTRF, SAR follow-up (AID 2489); assay type: functional
[13] = target: DNA (cytosine-5)-methyltransferase 1 (Homo sapiens, UniProt P26358); test: DNMT1 methyltransferase inhibitors, confirmation, biochemical, fluorescent molecular beacon (AID 602386); assay type: functional
Protein Tat = target: T6, Protein Tat (Human immunodeficiency virus type 1 group M subtype B (isolate HXB2)(HIV-1), UniProt P04608); assay type: functional;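 note: tat binding to TAR RNA read out by fluorescence polarization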
T6 sequence (P04608 whole entry): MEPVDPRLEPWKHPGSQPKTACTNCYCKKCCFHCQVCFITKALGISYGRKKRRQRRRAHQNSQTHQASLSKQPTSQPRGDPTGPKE

[14] = THP-1 cell cytotoxicity, dose response, cytotoxicity control for Vif-APOBEC3G degradation inhibitor project, THP-1 cells (AID 1117359); assay type: functional; conditions: Human immunodeficiency virus 1, THP-1
Mucolipin-3 = Mucolipin-3 (Homo sapiens, UniProt Q8TDD5); test: Dose response cell-based high-throughput screening assay for agonists of the transient receptor potential channel ML3 (TRPML3). [Related pubchem assays: 1526, 1424, 1448 ]; assay type: functional
Ion channel NompC = Ion channel NompC (Danio rerio, UniProt Q7T1G6); test: Fluorescence counterscreen assay for TRPML3 agonists: dose response cell-based high-throughput screening assay to identify agonists of the transient receptor potential channel N1 (TRPN1). [Related pubchem assays: 1526, 1424, 1448 ]; assay type: functional
Aminopeptidase N = target: T7, Aminopeptidase N (Plasmodium falciparum FcB1/Columbia, UniProt O96935); test: P. falciparum M1AAP inhibitors, biochemical, fluorogenic H-Leu-NHMec substrate, 1536-well (AID 1445); parameters: species or system Plasmodium falciparum 3D7, 3D7
T7 sequence (O96935 whole entry): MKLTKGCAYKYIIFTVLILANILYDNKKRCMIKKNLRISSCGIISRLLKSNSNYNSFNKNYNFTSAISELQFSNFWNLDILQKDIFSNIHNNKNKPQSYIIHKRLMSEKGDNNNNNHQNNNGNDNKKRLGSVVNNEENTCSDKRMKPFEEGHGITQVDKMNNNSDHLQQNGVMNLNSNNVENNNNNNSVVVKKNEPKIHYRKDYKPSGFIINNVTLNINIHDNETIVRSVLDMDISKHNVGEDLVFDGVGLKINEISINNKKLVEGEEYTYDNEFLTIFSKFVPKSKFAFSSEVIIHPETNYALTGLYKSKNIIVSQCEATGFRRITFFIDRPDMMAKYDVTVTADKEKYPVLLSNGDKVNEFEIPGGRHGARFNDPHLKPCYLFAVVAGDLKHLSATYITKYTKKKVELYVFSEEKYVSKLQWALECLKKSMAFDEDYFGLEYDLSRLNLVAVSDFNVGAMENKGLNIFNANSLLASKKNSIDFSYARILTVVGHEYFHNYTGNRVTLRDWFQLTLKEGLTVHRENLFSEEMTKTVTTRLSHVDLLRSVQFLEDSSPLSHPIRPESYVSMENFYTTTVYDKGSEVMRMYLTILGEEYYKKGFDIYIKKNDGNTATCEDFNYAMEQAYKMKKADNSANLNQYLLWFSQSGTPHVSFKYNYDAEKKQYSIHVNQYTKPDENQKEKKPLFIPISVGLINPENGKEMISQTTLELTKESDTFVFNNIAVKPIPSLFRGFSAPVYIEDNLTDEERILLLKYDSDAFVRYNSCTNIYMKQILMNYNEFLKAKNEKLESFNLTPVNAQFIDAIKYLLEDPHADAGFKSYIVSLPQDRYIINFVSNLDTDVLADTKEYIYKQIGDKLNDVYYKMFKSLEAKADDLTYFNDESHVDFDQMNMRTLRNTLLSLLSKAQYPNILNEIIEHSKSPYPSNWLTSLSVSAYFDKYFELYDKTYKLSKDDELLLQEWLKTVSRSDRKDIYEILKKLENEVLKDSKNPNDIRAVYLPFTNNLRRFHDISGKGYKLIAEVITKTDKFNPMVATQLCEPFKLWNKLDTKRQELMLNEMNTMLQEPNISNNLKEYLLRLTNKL

[15] = enhancers of respiration in Yfh1-depleted yeast, dose response, Friedreich's ataxia, plus single-dose screen (AID 1465); assay type: functional;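 note: yeast depleted of Yfh1p frataxin homolog grown on glycerol needing respiration; WST-1 tetrazolium dye reduction as measure of cellular dehydrogenase metabolic activity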
[16] = target: FAD-linked sulfhydryl oxidase ALR (Homo sapiens, UniProt P55789); test: inhibitors of human ALR sulfhydryl oxidase, dose response, biochemical, H2O2 detection, luminescence, cherry-pick (AID 493248)
[17] = target: 26S proteasome non-ATPase regulatory subunit 14 (Homo sapiens, UniProt O00487); test: inhibition of proteasome subunit RPN11 – biochemical, fluorescence polarization, uHTS hits, confirmation (AID 602368); assay type: functional
Sequence of 26S proteasome non-ATPase regulatory subunit 14 (O00487 whole entry): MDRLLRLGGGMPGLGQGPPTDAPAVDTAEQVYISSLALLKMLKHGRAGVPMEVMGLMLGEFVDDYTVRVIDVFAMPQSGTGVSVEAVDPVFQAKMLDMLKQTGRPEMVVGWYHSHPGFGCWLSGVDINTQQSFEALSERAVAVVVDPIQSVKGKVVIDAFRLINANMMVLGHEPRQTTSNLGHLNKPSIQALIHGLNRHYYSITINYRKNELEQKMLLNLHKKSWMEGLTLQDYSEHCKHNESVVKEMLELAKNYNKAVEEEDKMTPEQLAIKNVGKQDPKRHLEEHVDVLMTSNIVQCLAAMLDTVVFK

[18] = target: 72 kDa type IV collagenase (Homo sapiens, UniProt P08253); test: Dose Response validation of uHTS RPN11 inhibitor hits using a MMP-2 Fluorescence assay.; assay type: functional
Prothrombin = Prothrombin (Bos taurus, UniProt P00735); test: thrombin inhibition, dose response, biochemical, fluorescence polarization, uHTS hits (AID 602369); assay type: functional
Bcl-2-like protein 10 [19] = target: T4, Bcl-2-like protein 10; test: Biochemical TR3 FP assay of Bcl-B inhibitor potency, EC50 (AID 1243); assay type: functional
[20] = HEp-2 cell cytotoxicity, dose response, cytotoxicity control for RSV inhibitor project, HTS (AID 2410); assay type: functional; conditions: human respiratory syncytial virus
[21] = Luminescence Cell-Based Dose Confirmation HTS to Identify Inhibitors of Polyadenylation.; assay type: functional
Streptokinase A = target: T8, Streptokinase A (Streptococcus pyogenes serotype M1, UniProt P10520); test: Absorbance Microorganism-Based Dose Response Follow up to Identify Inhibitors of Streptokinase Expression. [Related pubchem assays: 1677 (Project Summary), 1915, 1914, 1902 (Retest at Dose), 1900 (Counter Screen), 1662 (Primary HTS)]; assay type: functional, Streptococcus pyogenes M1 GAS
T8 sequence (P10520 whole entry): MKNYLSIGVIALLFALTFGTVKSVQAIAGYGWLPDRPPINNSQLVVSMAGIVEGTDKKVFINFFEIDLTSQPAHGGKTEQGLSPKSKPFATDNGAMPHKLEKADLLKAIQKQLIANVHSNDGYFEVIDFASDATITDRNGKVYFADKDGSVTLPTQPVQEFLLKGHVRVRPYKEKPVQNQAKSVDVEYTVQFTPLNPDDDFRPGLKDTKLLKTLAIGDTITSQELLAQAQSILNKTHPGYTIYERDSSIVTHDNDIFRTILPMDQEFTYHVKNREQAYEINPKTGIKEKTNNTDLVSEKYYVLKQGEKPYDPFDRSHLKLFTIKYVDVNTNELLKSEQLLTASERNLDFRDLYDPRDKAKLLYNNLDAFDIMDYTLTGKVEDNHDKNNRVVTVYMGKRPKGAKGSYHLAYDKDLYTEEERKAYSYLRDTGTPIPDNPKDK

Streptococcus = test: Streptococcus pyogenes growth inhibition counter-screen, dose response, counter-screen for streptokinase expression inhibitor project, luminescence, BacTiter-Glo, strain UMAA2166 (AID 2477); assay type: functional, organism-based

T1 sequence (Q9UBE0 whole entry): as the sequence (Q9UBE0 whole entry) above
T1 sequence (Q9UBT2 whole entry): as the sequence (Q9UBT2 whole entry) above

Structure (SMILES): COc1ccccc1C(=O)Nc1ccc(-c2nnn(CC(=O)NCc3ccco3)n2)cc1
- IC50 (SUMO-activating enzyme [1]): 27.2 µM (active)
- IC50 [2]: > 0.608 µM (active)
- IC50 (SUMO-activating enzyme [3]): 11.8 µM (active)
- IC50 [4]: > 111 µM (not active)

Structure (SMILES): O=C(O)CN1C(=O)/C(=C\c2cc([N+](=O)[O-])ccc2OCc2ccccc2Cl)SC1=S
- IC50 [5]: > 109 µM (not active)
- IC50 (Bcl-2-like protein 1): > 109 µM (not active)
- IC50 (Genome polyprotein [6]): 31.1 µM (active)
- AC50 (Caspase-6): 12.9 µM (active)

Structure (SMILES): COc1ccccc1CNC(=O)COC(=O)c1cc(-c2ccco2)nc2ccccc12
- IC50 (Genome polyprotein [7]): > 49.8 µM (not active)
- IC50 (Bcl-2-like protein 10 [8]): 10.7 µM (active)
- IC50 (SUMO-activating enzyme [1]): 5.42 µM (active)
- IC50 (SUMO-activating enzyme [3]): 10.6 µM (active)
- IC50 [9]: 5.79 µM (active)
- IC50 [10]: 2.04 µM (active)
- IC50 (SUMO E1/E2): 5.8 µM (active)
- IC50 [11]: 7.83 µM (active)
- IC50 [12]: 22.7 µM (active)
- IC50 [13]: 7.11 µM (active)
- IC50 (Protein Tat): > 100 µM (active)
- CC50 [14]: > 40 µM (active)

Structure (SMILES): S=C(NC1CCCCC1)N1CCOCCOCCN(C(=S)NC2CCCCC2)CCOCC1
- EC50 (Mucolipin-3): 20.4 µM (not active)
- EC50 (Ion channel NompC): > 29.9 µM (not active)

Structure (SMILES): CCn1c(C)cc(/C=C2/SC(=S)N(CC(=O)O)C2=O)c1C
- IC50 (Aminopeptidase N): 75.5 µM (active)
- EC50 [15]: > 100 µM (active)
- AC50 [16]: 0.776 µM (active)
- IC50 [17]: 28.6 µM (active)
- IC50 [18]: > 100 µM (inactive)
- IC50 (Prothrombin): 32.9 µM (active)

Structure (SMILES): O=C(O)C1C2CC=CC2c2cc(Oc3ccccc3)cc3c2N1CC1CC=CC31 (centres undefined)
- EC50 (Bcl-2-like protein 10 [19]): 4.13 µM (active)

Structure (SMILES): CCn1nc(C)c(CN2CCCC(CO)(Cc3ccccc3)C2)c1C (centres undefined)
- CC50 [20]: > 50 µM (active)
- IC50 (cells): 42.9 µM (active)

Structure (SMILES): CC(C)CC(Nc1ncnc2scc(-c3ccccc3)c12)C(=O)O (centres undefined)
- EC50 [21]: > 120 µM (not active)

Structure (SMILES): N#Cc1cc(NC(=O)c2ccc(Cl)cc2)ccc1Sc1ccccc1
- EC50 (Streptokinase A): 3.25 µM (active)
- EC50 (Streptococcus): 98.8 µM (active)
